The record followed here is patent US12365677B2, “Degraders that target proteins via KEAP1” (DANA-FARBER CANCER INSTITUTE, INC., priority 2018, dated 2025).

Common to all, as to type: cell-based
In assay [1] the target is T1, BRD2 (Homo sapiens, UniProt P25440). The assay can be described thus: Immunoblot of MM.1S multiple myeloma cells. Further details: endogenous in cells; host or cells: MM.1S multiple myeloma cells. As to conditions: MM.1S cells. On the procedure: (§1) MM.1S multiple myeloma cells were treated with 0, 1, 5 μM bifunctional compound 1 and 9 or bifunctional compound 20 (0.5 μM, as a positive control, known degrader of BRD) for 14 or 24 h, then lysed and immunoblotted with antibodies to BRD2, BRD3, BRD4 and β-Actin.
(§2) MM.1S multiple myeloma cells were treated with 0, 1, 5 μM bifunctional compound 1 and 9 or bifunctional compound 20 (0.5 μM, as a positive control) for 14 or 24 h, then lysed and immunoblotted with antibodies to BRD2, BRD3, BRD4 and β-Actin.
Background: A western blot detects proteins with antibodies after separation by electrophoresis.

Assay [2] addresses T2, BRD2BD2 (Homo sapiens, UniProt P25440).
T2 construct: a single BD (BD1 or BD2) of a BRD protein was tagged at the C-terminus with an enhanced Green Fluorescent Protein (eGFP); P2A linker (part left after the co-translational cut; mCherry is released as a separate chain) (C); expressed in transfected cells
The assay can be described thus: Rescue of degradation in reporter cell line by pre-treatment with inhibitors (compound 1). The note with it: then concentration series of the degrader for 24 hours. An excerpt: (§3) To evaluate the activity of KEAP1-BRD targeting degraders in the cell, FACS-enabled stable reporter cell lines for single Bromodomain (BD) of the BRD2, 3 and 4 proteins were developed using the pCDNA5/FRT vector of the FLp-In system and followed the manufacturer's protocol.
(§4) A DNA sequence was constructed where a single BD (BD1 or BD2) of a BRD protein was tagged at the C-terminus with an enhanced Green Fluorescent Protein (eGFP). This sequence was followed by a P2A linker and a sequence that codes for mCherry fluorescent protein. The P2A linker that is located between the eGFP-tagged protein and the mCherry causes a single cut in the backbone amide bonds of the polypeptide during the translation of the mRNA, resulting in generation of two polypeptide chains, an eGFP-tagged protein and a mCherry protein. The expression level of these two polypeptides is therefore identical as they originate from a single mRNA, making the mCherry signal an expression level reporter as an internal reference. […]
The treated cells were then harvested by trypsin digest, brought to a volume of 200 μL with DMEM medium supplemented with 10% FBS and transferred to a 96-well assay plate for FACS reading. The eGFP/RFP ratio for each condition was then calculated and normalized against the zero-compound condition and plotted.
The rescue of BRD2BD2 degradation with two inhibitors JQ1 and MLN4924 was then determined. […]

For assay [3], the target named is T3, BRD4 (Homo sapiens, UniProt O60885).
T3 construct: endogenous in cells; host or cells: MM.1S multiple myeloma cells
Kind of assay: Immunoblot of MM.1S multiple myeloma cells. As to conditions: MM.1S cells. As to the method: as §1, §2

In assay [4] the target is T4, BRD3 (Homo sapiens, UniProt Q15059).
T4 construct: endogenous in cells; host or cells: MM.1S multiple myeloma cells
The assay can be described thus: Immunoblot of MM.1S multiple myeloma cells. As to conditions: MM.1S cells. On the procedure:
as §1, §2

The test system of assay [5] is BRD2-BD1, BRD2-BD2, BRD3-BD1, BRD3-BD2, BRD4-BD1, BRD4-BD2 as GFP fusion proteins. The assay can be described thus: FACS eGFP/mCherry reporter cell lines for single bromodomains, degradation compared across bromodomains. As to conditions: concentration series starting at 20 μM, 5× dilution, 24 hours at 37° C.
Excerpt: as §3, §4
(§5) The treated cells were then harvested by trypsin digest, brought to a volume of 200 μL with DMEM medium supplemented with 10% FBS and transferred to a 96-well assay plate for FACS reading. The eGFP/RFP ratio for each condition was then calculated and normalized against the zero-compound condition and plotted. […]

Assay [6] has as its target T1, BRD2. The assay can be described thus: TMT quantitative proteomics, change in relative protein abundance in HEK293T cells. The arrangement: endogenous in cells; host or cells: HEK293T cells. The note with it: 5 μM, 6 hours. As to the method:
Lysis buffer (8 M Urea, 50 mM NaCl, 50 mM 4-(2hydroxyethyl)-1-piperazineethanesulfonic acid (EPPS) pH 8.5. Protease and Phosphatase inhibitors from Roche) was added to the cell pellets and homogenized by 20 passes through a 21 gauge (1.25 in. long) needle to achieve a cell lysate with a protein concentration between 1-4 mg/mL. A micro-BCA assay (Pierce™) was used to determine the final protein concentration in the cell lysate. 200 μg of protein for each sample were reduced and alkylated as previously described. Proteins were precipitated using methanol/chloroform. In brief, four volumes of methanol were added to the cell lysate, followed by one volume of chloroform, and finally three volumes of water. The mixture was vortexed and centrifuged to separate the chloroform phase from the aqueous phase. […]
Precipitated protein was resuspended in 4 M urea, 50 mM HEPES pH 7.4, followed by dilution to 1 M urea with the addition of 200 mM EPPS, pH 8. […] The sample channels were combined at a 1:1:1:1:1:1:1:1:1:1 ratio, desalted using C18 solid phase extraction cartridges (Waters™) and analyzed by LC-MS for channel ratio comparison.
Samples were then combined using the adjusted volumes determined in the channel ratio analysis and dried down in a speed vacuum. […]

In assay [7] the target is T5, BRD2^BD1 (Homo sapiens, UniProt P25440+Q14145).
T5 construct: a single BD (BD1 or BD2) of a BRD protein was tagged at the C-terminus with an enhanced Green Fluorescent Protein (eGFP); P2A linker (part left after the co-translational cut; mCherry is released as a separate chain) (C); expressed in transfected cells
The assay can be described thus: Rescue of degradation in reporter cell line by pre-treatment with inhibitors (compound 9). As to conditions: pre-treated with 10 μM MLN4924 for 1 hour, then concentration series of the degrader for 24 hours.
Excerpt: as §3
(§6) A DNA sequence was constructed where a single BD (BD1 or BD2) of a BRD protein was tagged at the C-terminus with an enhanced Green Fluorescent Protein (eGFP). This sequence was followed by a P2A linker and a sequence that codes for mCherry fluorescent protein. The P2A linker that is located between the eGFP-tagged protein and the mCherry causes a single cut in the backbone amide bonds of the polypeptide during the translation of the mRNA, resulting in generation of two polypeptide chains, an eGFP-tagged protein and a mCherry protein. The expression level of these two polypeptides is therefore identical as they originate from a single mRNA, making the mCherry signal an expression level reporter as an internal reference.
(§7) The reporter cell lines were seeded on a 48-well plate the day before. […]
as §5

The target of assay [8] is T6, BRD2^BD1 (Homo sapiens, UniProt P25440).
T6 construct: a single BD (BD1 or BD2) of a BRD protein was tagged at the C-terminus with an enhanced Green Fluorescent Protein (eGFP); P2A linker (part left after the co-translational cut; mCherry is released as a separate chain) (C); expressed in transfected cells
The description is as above. The note with it: pre-treated with 10 μM JQ1 for 1 hour, then concentration series of the degrader for 24 hours.
Excerpt: as §3, §6, §7, §5

T1 sequence (P25440 whole entry): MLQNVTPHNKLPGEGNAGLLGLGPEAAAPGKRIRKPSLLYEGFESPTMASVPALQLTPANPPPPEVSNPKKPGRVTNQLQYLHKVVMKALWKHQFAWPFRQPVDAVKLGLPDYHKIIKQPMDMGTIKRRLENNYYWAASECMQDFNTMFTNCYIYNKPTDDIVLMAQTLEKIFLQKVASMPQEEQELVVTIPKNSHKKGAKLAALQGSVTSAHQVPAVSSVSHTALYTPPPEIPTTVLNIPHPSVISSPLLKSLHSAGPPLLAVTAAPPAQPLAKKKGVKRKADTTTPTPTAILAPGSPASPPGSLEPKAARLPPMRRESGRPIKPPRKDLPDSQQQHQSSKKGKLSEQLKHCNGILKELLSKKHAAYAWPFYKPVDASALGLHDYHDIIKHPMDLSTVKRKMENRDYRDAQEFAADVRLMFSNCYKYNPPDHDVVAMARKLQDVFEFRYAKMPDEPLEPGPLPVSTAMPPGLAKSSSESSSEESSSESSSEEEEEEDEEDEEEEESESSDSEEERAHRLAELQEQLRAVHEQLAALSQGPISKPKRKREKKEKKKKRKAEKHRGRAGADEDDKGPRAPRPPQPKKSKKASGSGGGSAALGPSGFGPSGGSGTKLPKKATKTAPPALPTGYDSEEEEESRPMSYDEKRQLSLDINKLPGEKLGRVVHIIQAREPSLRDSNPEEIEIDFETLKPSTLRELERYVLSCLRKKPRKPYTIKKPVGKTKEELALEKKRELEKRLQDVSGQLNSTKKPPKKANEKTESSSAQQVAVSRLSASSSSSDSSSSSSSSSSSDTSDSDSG
T4 sequence (Q15059 whole entry): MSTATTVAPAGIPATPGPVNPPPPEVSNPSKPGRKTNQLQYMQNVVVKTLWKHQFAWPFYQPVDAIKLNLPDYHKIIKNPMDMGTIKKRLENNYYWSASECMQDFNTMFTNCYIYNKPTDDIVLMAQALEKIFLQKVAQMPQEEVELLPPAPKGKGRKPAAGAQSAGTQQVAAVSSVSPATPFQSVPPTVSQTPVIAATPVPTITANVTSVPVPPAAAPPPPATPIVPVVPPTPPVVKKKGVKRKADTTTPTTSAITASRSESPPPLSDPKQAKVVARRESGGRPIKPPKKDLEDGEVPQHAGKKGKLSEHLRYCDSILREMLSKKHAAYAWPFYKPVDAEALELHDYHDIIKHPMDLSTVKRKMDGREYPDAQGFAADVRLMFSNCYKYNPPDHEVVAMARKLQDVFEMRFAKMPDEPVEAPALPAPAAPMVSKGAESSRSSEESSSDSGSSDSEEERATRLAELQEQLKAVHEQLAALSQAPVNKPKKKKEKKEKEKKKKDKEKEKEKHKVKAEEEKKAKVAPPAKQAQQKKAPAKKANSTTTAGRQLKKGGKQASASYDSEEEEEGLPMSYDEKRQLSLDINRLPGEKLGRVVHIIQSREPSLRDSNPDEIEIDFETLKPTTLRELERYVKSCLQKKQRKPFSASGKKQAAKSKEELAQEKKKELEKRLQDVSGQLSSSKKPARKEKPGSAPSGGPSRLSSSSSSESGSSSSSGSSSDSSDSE
T2 sequence (P25440 344-453): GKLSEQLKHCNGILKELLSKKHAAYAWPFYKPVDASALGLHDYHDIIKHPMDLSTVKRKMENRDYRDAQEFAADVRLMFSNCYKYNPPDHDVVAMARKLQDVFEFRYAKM
T6 sequence (P25440 74-180 limits assumed): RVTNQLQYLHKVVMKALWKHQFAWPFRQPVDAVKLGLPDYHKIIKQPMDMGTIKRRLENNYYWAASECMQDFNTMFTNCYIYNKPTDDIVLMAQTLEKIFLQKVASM
T6 sequence (Q14145 whole entry, further chain): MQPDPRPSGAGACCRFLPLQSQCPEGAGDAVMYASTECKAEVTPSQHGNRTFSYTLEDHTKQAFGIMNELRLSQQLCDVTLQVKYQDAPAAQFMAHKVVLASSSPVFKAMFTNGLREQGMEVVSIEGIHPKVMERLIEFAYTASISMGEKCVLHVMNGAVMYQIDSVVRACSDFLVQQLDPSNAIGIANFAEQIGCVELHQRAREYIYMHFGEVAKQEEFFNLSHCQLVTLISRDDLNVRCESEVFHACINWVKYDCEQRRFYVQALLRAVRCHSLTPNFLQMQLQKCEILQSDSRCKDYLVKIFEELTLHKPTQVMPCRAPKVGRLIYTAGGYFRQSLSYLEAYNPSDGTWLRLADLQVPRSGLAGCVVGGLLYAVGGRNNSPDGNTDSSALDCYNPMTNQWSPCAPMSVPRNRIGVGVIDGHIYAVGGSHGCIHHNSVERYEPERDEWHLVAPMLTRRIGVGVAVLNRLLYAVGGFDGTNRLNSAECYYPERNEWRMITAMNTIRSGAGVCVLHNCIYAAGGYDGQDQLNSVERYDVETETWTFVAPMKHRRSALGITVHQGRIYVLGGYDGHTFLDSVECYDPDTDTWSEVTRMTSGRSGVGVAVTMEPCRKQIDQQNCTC
T5 sequence (P25440 74-180 limits assumed): as the sequence (P25440 74-180 limits assumed) above
T5 sequence (Q14145 whole entry): as the sequence (Q14145 whole entry, further chain) above

Consider `COc1cc(C(CC(=O)O)c2ccc(C)c(CN3C[C@@H](C)Oc4cc(CCCCCCNC(=O)C[C@@H]5N=C(c6ccc(Cl)cc6)c6c(sc(C)c6C)-n6c(C)nnc65)ccc4S3(=O)=O)c2)cc2nnn(C)c12` (stereo partly drawn) [compound 1, 3-(3-(((R)-7-(6-(2-((S)-4-(4-chlorophenyl)-2,3,9-trimethyl-6H-thieno[3,2-f][1,2,4]triazolo[4,3-a][1,4]diazepin-6-yl)acetamido)hexyl)-4-methyl-1,1-dioxido-3,4-dihydro-2H-benzo[b][1,4,5]oxathiazepin-2-yl)methyl)-4-methylphenyl)-3-(7-methoxy-1-methyl-1H-benzo[d][1,2,3]triazol-5-yl)propanoic acid], for which, in assay [1] (1 μM, both 14 and 24 h), the “degradation of BRD2 (immunoblot)” value is listed as “slightly decreased the abundance”. Also, the “degradation of BRD2 (immunoblot), hook effect” value in assay [1] (5 μM, 14 or 24 h) was “a decrease in BRD2, BRD3 and BRD4 degradation were observed”. The “rescue of BRD2BD2 degradation by JQ1” value in assay [2] (pre-treated with 10 μM JQ1 for 1 hour) is on record as “can be rescued by JQ1”. For the same compound, the “rescue of BRD2BD2 degradation by MLN4924” value in assay [2] (pre-treated with 10 μM MLN4924 for 1 hour) is on record as “rescued by the neddylation inhibitor, MLN4924”. Also, the “degradation of BRD4 (immunoblot)” value in assay [3] (1 μM, both 14 and 24 h) is given as “strongly induced the degradation”. Moreover, in assay [3] (5 μM, 14 or 24 h), the “degradation of BRD4 (immunoblot), hook effect” value is “a decrease in BRD2, BRD3 and BRD4 degradation were observed”. Further, the “degradation of BRD3 (immunoblot)” value in assay [4] (1 μM, both 14 and 24 h) was “strongly induced the degradation”. The “degradation of BRD3 (immunoblot), hook effect” value in assay [4] (5 μM, 14 or 24 h) was “a decrease in BRD2, BRD3 and BRD4 degradation were observed”. In addition, the “degradation of BRD bromodomain reporters (normalized eGFP/RFP ratio), comparison between bromodomains” value in assay [5] is “with the exception of BRD4BD1, bifunctional compound 1 targeted BRD-BD proteins with similar efficiency”.
With `COc1cc(C(CC(=O)O)c2ccc(C)c(CN(C)S(=O)(=O)c3ccc(OCCCCCCNC(=O)C[C@@H]4N=C(c5ccc(Cl)cc5)c5c(sc(C)c5C)-n5c(C)nnc54)cc3)c2)cc2nnn(C)c12` (stereo partly drawn) [compound 9, 3-(3-((4-(6-(2-((6S)-4-(4-chlorophenyl)-2,3,9-trimethyl-6H-thieno[3,2-f][1,2,4]triazolo[4,3-a][1,4]diazepin-6-yl)acetamido)hexyloxy)-N-methylphenylsulfonamido)methyl)-4-methylphenyl)-3-(7-methoxy-1-methyl-1H-benzo[d][1,2,3]triazol-5-yl)propanoic acid], the “BRD2 degradation (relative protein abundance vs DMSO)” value in assay [6] is on record as “BRD2 degradation was observed”. Moreover, in assay [7], the “rescue of BRD2^BD1 degradation by MLN4924” value was “rescued by the neddylation inhibitor, MLN4924”. Further, the “rescue of BRD2^BD1 degradation by JQ1” value in assay [8] was “can be rescued by JQ1”. Moreover, the “degradation of BRD2 (immunoblot)” value in assay [1] (5 μM, 24 h) is given as “slightly degraded”. In addition, the “degradation of BRD4 (immunoblot)” value in assay [3] (5 μM, 24 h) is “slightly degraded”. Further, in assay [4] (5 μM, 24 h), the “degradation of BRD3 (immunoblot)” value is given as “slightly degraded”. Also, the “degradation of BRD bromodomain reporters (normalized eGFP/RFP ratio), comparison between bromodomains” value in assay [5] was “modest preference for BRD2^BD1 and BRD4^BD1”.
